14 compounds from patent US20240116946A1 (Gilead Sciences, Inc., priority 2022, published 2024) can be followed below.

The subject of one assay is SARS-CoV-2-NLuc. The assay is described as follows: microbe, parasite or virus in culture. Format: cell-based, SARS Coronavirus 2.
Assay [1] concerns the target recombinant SARS-CoV-2 Main protease (Mpro) (Severe acute respiratory syndrome coronavirus 2 (2019-nCoV) (SARS-CoV-2), UniProt P0DTD1). The assay is described as follows: Cov Mpro Biochemical IC50 Assay. Conditions: recombinant SARS-CoV-2 Mpro 7.5 nM, fluorogenic peptide substrate 40 μM; read-out: MPro IC50.
The mark [2] stands for this setting: Severe acute respiratory syndrome coronavirus, 48 h; read-out: MPro EC50.
The mark [3] stands for this setting: Severe acute respiratory syndrome coronavirus, 48 h, read-out: MPro EC50.

pEC50, pIC50: −log10 of the molar value. Where two headings read alike, the source gives them in different places. Where only a bound is given, the exact number is not on record here.

Regarding `COc1ccc(Cl)c(-c2cc3[nH]c(=O)n(-c4cncc5cc(OC)ccc45)c(=O)c3s2)c1` [Example 624, 6-(2-chloro-5-methoxyphenyl)-3-(7-methoxyisoquinolin-4-yl)thieno[3,2-d]pyrimidine-2,4(1H,3H)-dione], the pEC50 with SARS-CoV-2-NLuc (setting [2]) is 6.41. Moreover, the pIC50 in assay [1] is 7.05.
Regarding `COc1ccc(Cl)c(-c2cc3[nH]c(=O)n(-c4cncc5ccc(OC)cc45)c(=O)c3s2)c1` [Example 625], the pEC50 in the assay on SARS-CoV-2-NLuc (setting [3]) is 7.74. Moreover, the pIC50 in assay [1] was 8.16.
Consider `COc1ccc(C#N)c(-c2cc3[nH]c(=O)n(-c4cncc5ccc(OC)cc45)c(=O)c3s2)c1` [Example 626], for which the pEC50 in the assay on SARS-CoV-2-NLuc (setting [3]) is 7.49. Further, the pIC50 in assay [1] was 8.11.
Turning to `COc1ccc(Cl)c(-c2cc3[nH]c(=O)n(-c4cncc5c(OC)cccc45)c(=O)c3s2)c1` [Example 627], the pEC50 in the assay on SARS-CoV-2-NLuc (setting [3]) is 5.32. Moreover, the pIC50 in assay [1] was 5.70.
With `COc1cc(-c2cc3c(s2)c(=O)n(-c2cncc4ccccc24)c(=O)n3CC#N)c(Cl)cc1F` [Example 630, 2-[6-(2-chloro-4-fluoro-5-methoxy-phenyl)-3-(4-isoquinolyl)-2,4-dioxo-thieno[3,2-d]pyrimidin-1-yl]acetonitrile], in the assay on SARS-CoV-2-NLuc (setting [2]), the pEC50 is 8.03. Besides, the pIC50 in assay [1] is 8.20.
Turning to `COc1cc(-c2cc3c(s2)c(=O)n(-c2cncc4ccccc24)c(=O)n3CC2(C#N)CC2)c(Cl)cc1F` [Example 631, 1-[[6-(2-chloro-4-fluoro-5-methoxy-phenyl)-3-(4-isoquinolyl)-2,4-dioxo-thieno[3,2-d]pyrimidin-1-yl]methyl]cyclopropanecarbonitrile], in the assay on SARS-CoV-2-NLuc (setting [2]), the pEC50 is 8.30. The pIC50 in assay [1] was 7.90.
As to `COc1cc(-c2cc3c(s2)c(=O)n(-c2cncc4ccccc24)c(=O)n3CCC#N)c(Cl)cc1F` [Example 632, 3-(6-(2-chloro-4-fluoro-5-methoxyphenyl)-3-(isoquinolin-4-yl)-2,4-dioxo-3,4-dihydrothieno[3,2-d]pyrimidin-1(2H)-yl)propanenitrile], the pEC50 in the assay with SARS-CoV-2-NLuc (setting [2]) is 8.51. In addition, the negative logarithm of the IC50 (pIC50) in assay [1] was 8.21.
For `COc1cc(-c2cc3c(s2)c(=O)n(-c2cncc4cnn(C)c24)c(=O)n3CC#N)c(Cl)cc1F` [Example 641, 2-[6-(2-chloro-4-fluoro-5-methoxy-phenyl)-3-(1-methylpyrazolo[4,3-c]pyridin-7-yl)-2,4-dioxo-thieno[3,2-d]pyrimidin-1-yl]acetonitrile] the same measures were above 8.35 and 8.66.
For `COc1cc(-c2cc3c(s2)c(=O)n(-c2cncc4cnn(C)c24)c(=O)n3CCC#N)c(Cl)cc1F` [Example 642, 3-[6-(2-chloro-4-fluoro-5-methoxy-phenyl)-3-(1-methylpyrazolo[4,3-c]pyridin-7-yl)-2,4-dioxo-thieno[3,2-d]pyrimidin-1-yl]propanenitrile], the negative-log EC50 (pEC50) in the assay with SARS-CoV-2-NLuc (setting [2]) was 8.34. Also, the pIC50 in assay [1] is 8.07.
For the compound `COc1cc(-c2cc3c(s2)c(=O)n(-c2cncc4cnn(C)c24)c(=O)n3CC2(C#N)CC2)c(Cl)cc1F` [Example 643, 1-[[6-(2-chloro-4-fluoro-5-methoxy-phenyl)-3-(1-methylpyrazolo[4,3-c]pyridin-7-yl)-2,4-dioxo-thieno[3,2-d]pyrimidin-1-yl]methyl]cyclopropanecarbonitrile], the pEC50 with SARS-CoV-2-NLuc (setting [2]) was 8.94. Also, the pIC50 in assay [1] was above 8.39.
Regarding `N#Cc1cc(-c2cc3[nH]c(=O)n(-c4cncc5ccccc45)c(=O)c3s2)c(Cl)cc1F` [Example 646], the pEC50 in the assay on SARS-CoV-2-NLuc (setting [3]) is 4.93. Also, in assay [1], the pIC50 was 5.72.
For `O=c1[nH]c2cc(-c3c(Cl)cc(Cl)c4c3CCO4)sc2c(=O)n1-c1cncc2ccccc12` [Example 647] the same measures were 7.59 and 7.96.
As for `Cc1cc(C)c(-c2cc3[nH]c(=O)n(-c4cncc5ccccc45)c(=O)c3s2)cc1C#N` [Example 648], in the assay with SARS-CoV-2-NLuc (setting [3]), the pEC50 is 6.73. Besides, in assay [1], the pIC50 is 7.00.
`COc1cc(-c2cc3[nH]c(=O)n(-c4cncc5cc(C(=O)N6CCOCC6)sc45)c(=O)c3s2)c(Cl)cc1F` [Example 649]: the pEC50 in the assay with SARS-CoV-2-NLuc (setting [3]) was 6.71. The pIC50 in assay [1] was 8.10.
